Among the data in US20260200926A1, “TREM2 MODULATORS” (Muna Therapeutics ApS, priority 2022, published 2026) are Emax and EC50 values, retold here.

The target of this assay is T1, Human TREM2 (Homo sapiens, UniProt Q9NZC2).
T1 construct: expressed in transfected cells
As to the kind of experiment: Human TREM2 activity: cellular phosphorylation of Syk (AlphaLISA SureFire Ultra p-SYK) in HEK293/DAP12+TREM2 stable cell line. The assay is classed as cell-based. As to conditions: for Emax: HEK293, maximal response relative to reference agonist example 1B (remaining examples), read-out: Emax; for EC50: phospho-Syk AlphaLISA signal, HEK293/DAP12+TREM2 cells, concentration giving 50% of maximal response, read-out: EC50. A digest of the protocol: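 The read-out was p-Syk (Tyr525/526), measured by AlphaLISA in lysates of a stable HEK293/DAP12+TREM2 clone. Cells (10,000/well, plated the day before) received compound for 30 min at 37 °C. Dosing used 8 points in quadruplicate, top 100 μM with 1:6 dilution, 0.5% final DMSO.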

T1 sequence (Q9NZC2 19-230): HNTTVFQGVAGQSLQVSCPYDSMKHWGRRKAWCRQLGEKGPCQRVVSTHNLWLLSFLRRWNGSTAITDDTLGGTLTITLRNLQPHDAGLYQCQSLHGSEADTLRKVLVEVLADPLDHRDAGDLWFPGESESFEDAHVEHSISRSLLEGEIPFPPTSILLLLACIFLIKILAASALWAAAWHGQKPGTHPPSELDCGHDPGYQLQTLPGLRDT
T1 sequence (O43914 22-113 partner): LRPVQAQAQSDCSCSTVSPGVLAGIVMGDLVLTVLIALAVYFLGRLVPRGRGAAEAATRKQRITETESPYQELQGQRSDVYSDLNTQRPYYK

As to `Cc1nc2c(-c3ccc(C(F)(F)F)nc3)nc(N3C[C@H](c4cnn(C)c4)OC(C)(C)C3)nc2c(=O)n1C` (single isomer, unassigned) [Example 102B], the Emax – broadly, the maximal effect, on the per cent scale that the assay sets – was below 75% and the EC50 (as a rule, the midpoint of the concentration-response curve) is above 1000 nM.
For the compound `Cc1nc2c(-c3ccc(Cl)cc3F)nc(N3CCOC(c4nccs4)C3)nc2c(=O)n1C` (stereo not drawn) [Example 48, 8-(4-chloro-2-fluorophenyl)-2,3-dimethyl-6-(2-(thiazol-2-yl)morpholino)pyrimido[5,4-d]pyrimidin-4(3H)-one], the Emax is below 75% and the EC50 lay within 10 to 100 nM.
In the case of `Cc1nc2c(-c3ccc(Cl)cc3F)nc(N3C[C@H](c4cnn(C5CC5)c4)OC(C)(C)C3)nc2c(=O)n1C` (single isomer, unassigned) [Example 110B], the Emax is below 75% and the EC50 was 10 to 100 nM.
On to `Cc1nc2c(-c3ccc(F)cc3F)nc(N3CCO[C@H](c4cnn(C)c4)C3)cc2c(=O)n1C` (single isomer, unassigned) [Example 129B], for which the Emax is below 75% and the EC50 fell in the range of 10 to 100 nM.
On to `Cc1cc([C@@H]2CN(c3cc4c(=O)n(C)c(C)nc4c(-c4ccc(C(F)(F)F)nc4)n3)CCO2)ccn1` (single isomer, unassigned) [Example 138A], for which the Emax is above 110% and the EC50 fell in the range of 10 to 100 nM.
The like results for `Cn1cc([C@H]2CN(c3nc(-c4ccc(F)cc4F)c4nc(C(F)(F)F)n(C)c(=O)c4n3)CC3(CC3)O2)cn1` (single isomer, unassigned) [Example 165B] were, in that order, 75 to 110% and 10 to 100 nM.
As to `Cn1cc(C2CN(c3nc(-c4ccc(F)cc4F)c4nc(C(F)(F)F)n(C)c(=O)c4c3F)CC3(CC3)O2)cn1` (stereo not drawn) [Example 158, 8-(2,4-difluorophenyl)-5-fluoro-3-methyl-6-(5-(1-methyl-1H-pyrazol-4-yl)-4-oxa-7-azaspiro[2.5]octan-7-yl)-2-(trifluoromethyl)pyrido[3,4-d]pyrimidin-4 (3H)-one], the Emax was below 75% and the EC50 fell in the range of 100 to 1000 nM.
With `Cc1nc2c(-c3ccc(Cl)cc3F)nc(N3C[C@H](c4cnn(C)c4)OC4(CCC4)C3)nc2c(=O)n1C` (single isomer, unassigned) [Example 109B], the Emax is below 75% and the EC50 was in the range of 100 to 1000 nM.
Take `COCC1CN(c2nc(-c3ccc(Cl)cc3F)c3nc(C)n(C)c(=O)c3n2)CCO1` (stereo not drawn) [Example 52, 8-(4-chloro-2-fluorophenyl)-6-(2-(methoxymethyl)morpholino)-2,3-dimethylpyrimido[5,4-d]pyrimidin-4(3H)-one]: the Emax lay within 75 to 110% and the EC50 lay in the range of 100 to 1000 nM.
In the same order, the values of `Cc1nc2c(-c3ccc(Cl)cc3F)nc(N3CC[C@@H](Oc4cnn(C)c4)C3)nc2c(=O)n1C` [Example 64, (R)-8-(4-chloro-2-fluorophenyl)-2,3-dimethyl-6-(3-((1-methyl-1H-pyrazol-4-yl)oxy)pyrrolidin-1-yl)pyrimido[5,4-d]pyrimidin-4 (3H)-one] are below 75% and 10 to 100 nM.
For `Cc1nc2c(-c3ccc(Cl)cc3F)nc([C@H]3CCO[C@@H](c4cnn(C5CC5)c4)C3)nc2c(=O)n1C` (racemic) [Example 14, 8-(4-chloro-2-fluorophenyl)-6-((2R,4S)-2-(1-cyclopropyl-1H-pyrazol-4-yl)tetrahydro-2H-pyran-4-yl)-2,3-dimethylpyrimido[5,4-d]pyrimidin-4 (3H)-one], the Emax is 75 to 110% and the EC50 fell in the range of 100 to 1000 nM.
Regarding `Cc1cc([C@@H]2CN(c3cc4c(=O)n(C)c(C)nc4c(-c4ccc(C(F)(F)F)cc4F)n3)CCO2)ccn1` (single isomer, unassigned) [Example 137A], the Emax fell in the range of 75 to 110% and the EC50 was in the range of 1 to 10 nM.
On to `Cc1nc2c(-c3cc(F)c(F)cc3F)nc(N3CCO[C@@H](c4cnn(C)c4)C3)nc2c(=O)n1C` (single isomer, unassigned) [Example 27B], for which the Emax lay within 75 to 110% and the EC50 was in the range of 10 to 100 nM.
For the compound `Cc1nc2c(-c3ccc(Cl)cc3F)nc(N3CCOC(C)(c4cnn(C)c4)C3)nc2c(=O)n1C` (stereo not drawn) [Example 55, 8-(4-chloro-2-fluorophenyl)-2,3-dimethyl-6-(2-methyl-2-(1-methyl-1H-pyrazol-4-yl)morpholino)pyrimido[5,4-d]pyrimidin-4(3H)-one], the maximum response (Emax) is below 75% and the EC50 is above 1000 nM.
In the case of `Cc1nc2c(C34CC(C(F)(F)F)(C3)C4)nc(N3CCO[C@@H](c4cnn(C)c4)C3)nc2c(=O)n1C` [Example 113, (S)-2,3-dimethyl-6-(2-(1-methyl-1H-pyrazol-4-yl)morpholino)-8-(3-(trifluoromethyl)bicyclo[1.1.1]pentan-1-yl)pyrimido[5,4-d]pyrimidin-4 (3H)-one], the Emax was 75 to 110% and the EC50 lay within 1 to 10 nM.
As for `Cc1nc2c(-c3cc(F)c(F)cc3F)nc(N3C[C@@H](c4cnn(C)c4)OC(C)(C)C3)cc2c(=O)n1C` (single isomer, unassigned) [Example 150A], the Emax fell in the range of 75 to 110% and the EC50 lay in the range of 10 to 100 nM.
`Cc1nc2c(-c3ccc(Cl)cc3F)nc(N3CC(COc4cnn(C)c4)C3)nc2c(=O)n1C` [Example 15, 8-(4-chloro-2-fluorophenyl)-2,3-dimethyl-6-(3-(((1-methyl-1H-pyrazol-4-yl)oxy)methyl)azetidin-1-yl)pyrimido[5,4-d]pyrimidin-4 (3H)-one]: the Emax was below 75% and the EC50 is above 1000 nM.
On to `Cc1nc2c(-c3ccc(C(F)(F)F)cc3F)nc(N3CCO[C@@H](c4cnn(C5CC5)c4)C3)nc2c(=O)n1C` (single isomer, unassigned) [Example 20B], for which the Emax lay in the range of 75 to 110% and the EC50 fell in the range of 1 to 10 nM.
In the same order, the values of `Cc1nc2c(-c3ccc(F)cc3F)nc(N3CC(C)OC(c4cnn(C5CC5)c4)C3)nc2c(=O)n1C` (racemic) [Example 177C, 6-(2-(1-cyclopropyl-1H-pyrazol-4-yl)-6-methylmorpholino)-8-(2,4-difluorophenyl)-2,3-dimethylpyrimido[5,4-d]pyrimidin-4 (3H)-one] are below 75% and 100 to 1000 nM.
`Cc1nc2c(-c3ccc(Cl)cc3F)cc(N3C[C@@H](c4cnn(C)c4)OC(C)(C)C3)cc2c(=O)n1C` (single isomer, unassigned) [Example 117A]: the Emax lay in the range of 75 to 110% and the EC50 was in the range of 10 to 100 nM.
Consider `Cc1nc2c(-c3ccc(Cl)cc3F)nc(N3CCOC(c4cn[nH]c4)C3)nc2c(=O)n1C` (stereo not drawn) [Example 39, 6-(2-(1H-pyrazol-4-yl)morpholino)-8-(4-chloro-2-fluorophenyl)-2,3-dimethylpyrimido[5,4-d]pyrimidin-4 (3H)-one], for which the Emax was below 75% and the EC50 was 10 to 100 nM.
On to `Cc1cc([C@@H]2CN(c3nc(-c4ccc(F)cc4F)c4nc(C(F)(F)F)n(C)c(=O)c4n3)C[C@H](C)O2)ccn1` (single isomer, unassigned) [Example 191A], for which the Emax is below 75% and the EC50 is below 1 nM.
Regarding `Cc1nc2c(-c3ccc(Cl)cc3F)nc(N3C[C@H](c4cnn(C)c4)OC4(CCC4)C3)cc2c(=O)n1C` (single isomer, unassigned) [Example 151B], the Emax is below 75% and the EC50 was 100 to 1000 nM.
For `Cc1nc2c(-c3cc(F)c(F)cc3F)nc(N3C[C@H](c4cnn(C)c4)OC4(CC4)C3)cc2c(=O)n1C` (single isomer, unassigned) [Example 146B], the Emax was below 75% and the EC50 is above 1000 nM.
In the case of `Cc1nc2c(-c3ccc(Cl)cc3F)nc(N3C[C@@H](c4cnn(C5CC5)c4)OC(C)(C)C3)nc2c(=O)n1C` (single isomer, unassigned) [Example 110A], the Emax lay in the range of 75 to 110% and the EC50 is 1 to 10 nM.
As for `Cc1nc2c(-c3ccc(F)cc3F)nc(N3C[C@@H](c4cnn(C)c4)OC(C)(C)C3)nc2c(=O)n1C` (single isomer, unassigned) [Example 121A], the Emax was below 75% and the EC50 lay within 100 to 1000 nM.
In the case of `Cc1nc2c(-c3ccc(Cl)cc3F)cc(N3C[C@H](c4cnn(C)c4)OC(C)(C)C3)nc2c(=O)n1C` (single isomer, unassigned) [Example 142B], the Emax lay within 75 to 110% and the concentration giving a half-maximal response (EC50) lay in the range of 10 to 100 nM.
For `Cc1cc([C@@H]2CN(c3nc(-c4ccc(Cl)cc4F)c4nc(C)n(C)c(=O)c4n3)C[C@H](C)O2)ccn1` (single isomer, unassigned) [Example 176A], the Emax is 75 to 110% and the EC50 is below 1 nM.
Consider `COCCN1CCN(c2nc(-c3ccc(Cl)cc3F)c3nc(C)n(C)c(=O)c3n2)CC1c1cnn(C)c1` (stereo not drawn) [Example 34, 8-(4-chloro-2-fluorophenyl)-6-(4-(2-methoxyethyl)-3-(1-methyl-1H-pyrazol-4-yl)piperazin-1-yl)-2,3-dimethylpyrimido[5,4-d]pyrimidin-4(3H)-one], for which the Emax was below 75% and the EC50 lay in the range of 100 to 1000 nM.
Regarding `Cc1cc([C@H]2CN(c3nc(-c4ccc(F)cc4F)c4nc(C(F)(F)F)n(C)c(=O)c4n3)CCO2)ccn1` (single isomer, unassigned) [Example 154B], the Emax is 75 to 110% and the EC50 was 10 to 100 nM.
The like results for `Cc1cc([C@@H]2CN(c3cc4c(=O)n(C)c(C)nc4c(-c4ccc(C(F)F)nc4)n3)C[C@H](C)O2)ccn1` (single isomer, unassigned) [Example 192A] were, in that order, below 75% and 100 to 1000 nM.
In the same order, the values of `Cc1nc2c(-c3ccc(C(F)(F)F)cc3F)nc([C@@H]3CCO[C@H](c4cnn(C5CC5)c4)C3)cc2c(=O)n1C` (single isomer, unassigned) [Example 153A] are above 110% and 1 to 10 nM.
The like results for `Cc1nc2c(-c3ccc(Cl)cc3F)nc(N3CCC(F)(F)C(c4cnn(C)c4)C3)nc2c(=O)n1C` (stereo not drawn) [Example 13, 8-(4-chloro-2-fluorophenyl)-6-(4,4-difluoro-3-(1-methyl-1H-pyrazol-4-yl)piperidin-1-yl)-2,3-dimethylpyrimido[5,4-d]pyrimidin-4 (3H)-one] were, in that order, 75 to 110% and 1 to 10 nM.
